From article PMC11943723, “Synthesis and Biological Activity of Glycosyl Thiazolyl Disulfides Based on Thiacarpine, an Analogue of the Cytotoxic Alkaloid Polycarpine from the Ascidian Polycarpa aurata” (Marine Drugs, 2025)
Converted amounts (≈) assume the structure as drawn. Where a name gives a salt, the structure may show the parent alone. Read-outs that look alike come from different tables or passages of the source.

Assays:
HeLa (cervical cancer) = assay: MTT cell viability assay, HeLa; type: cell-based, human; settings: Homo sapiens, HeLa, 24 h, 24 h incubation, read-out: Cytotoxicity EC50, HeLa
Source text: (§1) Human erythrocytes were purchased from the blood transfusion station Vladivostok. Human breast cancer cell lines MCF-7^HTB−22, and MDA-MB-231^CRM-HTB−26, liver hepatocellular carcinoma Hep G2^HB−8065, prostate adenocarcinoma PC-3^CRL−1435, cervical adenocarcinoma HeLa^CRM-CCL−2, and normal bronchial epithelial cells BEAS-2B ^CRL−3588 were received from ATCC (Manassas, VA, USA).
(§2) DMEM medium (Biolot, Russia) with 1% penicillin/streptomycin and 10% fetal bovine serum (FBS) (Biolot, Russia) was used for cultivation of Hep G2, PC-3, HeLa, and Beas-2b. MEM medium (Biolot, Russia) with 1% penicillin/streptomycin sulfate (Biolot, Russia) and FBS (Biolot, Russia) to a final concentration of 10% for MCF-7 and MDA-MB-231 cells.
(§3) The effect of the studied compounds on the viability of human cancer and normal cells was determined using the MTT (3-[4,5-dimethylthiazol-2-yl]-2,5 diphenyl tetrazolium bromide) assay. Briefly, 6 × 10^3 cells per well were seeded into 96-well plates and incubated for 24 h for adhesion, followed by incubation for 24 h with different concentrations of the substances. After incubation, the medium containing the test substances was replaced with 100 µL of fresh medium. Then, 10 μL of MTT (Sigma-Aldrich, Madison, WI, USA) reagent (5 mg/mL MTT in PBS) was added into the cells and the plates for additional 4 h. Thereafter, 100 µL of SDS-HCl solution (1 g SDS/10 mL dH2O/17 µL 6N HCl) was added to each well and incubated for 18 h. The absorbance of the converted formazan dye was measured using a Multiskan FC microplate photometer (Thermo Scientific, Waltham, MA, USA) at a wavelength of 570 nm. All experiments were performed in triplicate. Cytotoxic activity was expressed as a percentage of the cell viability.

[1] = tested on: Hep G2 (hepatocellular carcinoma); assay: MTT cell viability assay, Hep G2; type: cell-based; settings: Homo sapiens, HepG2, 24 h incubation, read-out: Cytotoxicity EC50, Hep G2
Source text: as §1, §2, §3

[2] = tested on: MDA-MB-231 (triple-negative breast cancer); assay: MTT cell viability assay, MDA-MB-231; type: cell-based, human; settings: Homo sapiens, MDA-MB-231, 24 h, 24 h incubation, read-out: Cytotoxicity EC50, MDA-MB-231 (TNBC)
Source text: as §1, §2, §3

[3] = MTT cell viability assay, BEAS-2B normal cells; type: cell-based; settings: human, BEAS-2B normal bronchial epithelial cells, 24 h incubation, read-out: Cytotoxicity EC50, BEAS 2B
Source text: as §1, §2, §3

[4] = tested on: Candida albicans (KMM 455); assay: Antimicrobial activity, inhibition of microbial growth (optical density); type: cell-based; settings: 18 h, OD 620 nm, read-out: Inhibition of Microbial Growth MIC50, C. albicans
Method: (§4) The antimicrobial activity of the compounds was determined against Gram-positive bacteria Staphylococcus aureus (ATCC 21027), Gram-negative bacteria Escherichia coli (VKPM B-7935), and yeast-like fungi Candida albicans (KMM 455) (all test strains were obtained from the Collection of Marine Microorganisms KMM PIBOC FEB RAS) in liquid nutrient media. Test cultures of S. aureus, E. coli, and C. albicans were grown in Petri dishes on a solid nutrient medium (Mueller–Hinton broth with the addition of agar—16.0 g/L) at 37 °C for 24 h. The antimicrobial activity of the compounds was determined by the change in optical density and expressed as the percentage of bacterial inhibition at different concentrations of substances added to the well of the microorganism suspension, compared to the control. The compounds were dissolved in dimethyl sulfoxide (DMSO) at a concentration of 10 mM and stored at −20 °C. Before the experiment, the solution of substances in DMSO was diluted with PBS at a concentration of 0.5–100.0 µM and added to the wells so that the concentration of DMSO in the culture medium was less than 1%. Antimicrobial activity was determined in 96-well microplates in a liquid Mueller–Hinton nutrient medium. For S. aureus, E. coli, and C. albicans, a bacterial suspension of 10^6 CFU in 1 mL of the media was used, 90 μL was added to each well of the microplates and then incubated in a thermostatted shaker at 37 °C for 18 h. Inhibition of microorganism growth was assessed by measuring the optical density at 620 nm using a microplate reader (Thermo Fisher Scientific, Waltham, MA, USA) after preliminary shaking of the plates for 10 min. All experiments were performed in triplicate. Gentamicin (S. aureus and E. coli) and nitrofungin (C. albicans) were used as positive controls, and 1% DMSO in PBS was used as a negative control.

[5] = tested on: Escherichia coli (VKPM B-7935); assay: as above; type: cell-based; settings: 18 h, OD 620 nm, read-out: Inhibition of Microbial Growth MIC50, E. coli
Method: as §4

[6] = tested on: Staphylococcus aureus (ATCC 21027); assay: as above; type: cell-based; settings: 18 h, OD 620 nm, read-out: Inhibition of Microbial Growth MIC50, S. aureus
Method: as §4

[7] = tested on: Candida albicans (KMM 455); assay: Inhibition of biofilm formation (MTT); type: cell-based; settings: 24 h
Method: (§5) Biofilm formation was performed according to the method described by Walencka et al., with minor modifications. The compounds were dissolved in dimethyl sulfoxide (DMSO) at a concentration of 10 mM and stored at −20 °C. Before the experiment, the solution of substances in DMSO was diluted with PBS at a concentration of 0.5–100.0 µM and added to the wells so that the concentration of DMSO in the culture medium was less than 1%. Biofilm formation was assessed in 96-well microplates in a liquid Mueller–Hinton nutrient medium. For S. aureus, E. coli, and C. albicans, a bacterial suspension of 10^6 CFU in 1 mL of medium was used, 90 μL was added to each well of the microplates and then incubated in a thermostatted shaker at 37 °C for 24 h. After incubation, the suspension of planktonic microorganisms was removed from the plate and washed with PBS. Next, 100 μL of PBS and 10 μL of MTT (3-(4,5-dimethylthiazol-2-yl)-2,5-diphenyltetrazolium bromide, MTT reagent, Sigma) stock solution (5 mg/mL) were added to the wells and incubated for 3 h at 37 °C. After incubation, all the solution was removed from the wells, 100 μL of DMSO was added, and the plate was shaken for 10 min until all formazan crystals had dissolved. The absorption was measured using a plate reader (Thermo Fisher Scientific, Waltham, MA, USA) at a wavelength of 570 nm. The activity of the substances was assessed by the change in optical density compared with that of the control. All experiments were performed in triplicate. Gentamicin (S. aureus and E. coli) and nitrofungin (C. albicans) were used as positive controls, and 1% DMSO in PBS was used as a negative control.

HeLa cells = assay: Colony formation (clonogenic) assay; type: cell-based; settings: Homo sapiens, 336 h, 14 days
Method: The effect of the test compounds on HeLa cell proliferation was analyzed using a clonogenic assay. Briefly, HeLa cells were cultured in 6-well plates at a density of 1 × 10^2 cells per well, and compounds were added at concentrations of 5 or 10 μM. Untreated culture medium was used as a control. […] Before fixation and staining, the medium was removed and the cells were washed twice with PBS. The colonies were then fixed with methanol for 25 min and stained with 0.5% crystal violet for 25 min at room temperature. The plates were then washed with water and air-dried.

Human erythrocytes = assay: Hemolytic activity (destruction of erythrocyte membranes); type: cell-based
Source text: as §1

[8] = tested on: Staphylococcus aureus (ATCC 21027); assay: Inhibition of biofilm formation (MTT); type: cell-based; settings: 24 h
Method: as §5

[9] = tested on: Escherichia coli (VKPM B-7935); assay: Inhibition of biofilm formation (MTT); type: cell-based; settings: 24 h
Method: as §5

[10] = Staphylococcus aureus, ATCC21027

SMILES | MIC50 ([4]; Candida albicans, KMM455) [µM] | MIC50 ([5]; Escherichia coli) [µM] | MIC50 [6, 10] [µM] | Inhibition of Biofilm Formation MIC50, C. albicans [7] [µM] | Inhibition of Biofilm Formation MIC50, S. aureus [8] [µM] | Inhibition of Biofilm Formation MIC50, E. coli [9] [µM] | MIC50 [4] [µM] | MIC50 [5] [µM] | MIC50 [6] [µM] | EC50 (HeLa (cervical cancer)) [µM] | EC50 [1] [µM] | EC50 [2] [µM] | EC50 at 24 h [3] [µM] | inhibition at 5 µM (HeLa cells; 5 µM, read-out: Colony growth inhibition) [%] | inhibition at 10 µM (HeLa cells; 10 µM) [%] | Hemolytic activity, erythrocytes (Human erythrocytes) [µM]
CC(=O)OC[C@H]1O[C@@H](SSc2sc(N)nc2-c2ccc(Cl)cc2)[C@H](OC(C)=O)[C@@H](OC(C)=O)[C@@H]1OC(C)=O [Compound 4d, 5-[(2,3,4,6-Tetra-O-acetyl-β-D-glucopyranosyl)disulfanyl]-2-amino-4-(4-chlorophenyl)thiazole] | 6.9 ± 0.9 (≈ 4.18 µg/mL) | 16.1 ± 1.7 (≈ 9.74 µg/mL) | 19.2 ± 2 (≈ 11.6 µg/mL) | 7.03 |  |  |  |  |  | > 25 | > 25 | 22.9 | 14.1 |  |  | 
COc1ccc(-c2nc(N)sc2SS[C@@H]2OC[C@@H](OC(C)=O)[C@H](OC(C)=O)[C@H]2OC(C)=O)cc1 [Compound 4f, 5-[(2,3,4-Tri-O-acetyl-β-D-xylopyranosyl)disulfanyl]-2-amino-4-(4-methoxyphenyl)thiazole] | 34.1 ± 2.1 (≈ 18 µg/mL) | 39.5 ± 4 (≈ 20.9 µg/mL) | 32.1 ± 3.7 (≈ 17 µg/mL) |  |  |  |  |  |  | 20.4 | 22.6 | 22.9 | 23.5 | ~16 | 78 | 
CC(=O)O[C@@H]1[C@@H](OC(C)=O)[C@H](SSc2sc(N)nc2-c2ccc(Cl)cc2)OC[C@H]1OC(C)=O [Compound 4i, 5-[(2,3,4-Tri-O-acetyl-β-D-xylopyranosyl)disulfanyl]-2-amino-4-(4-chlorophenyl)thiazole] | 2.8 ± 0.3 (≈ 1.49 µg/mL) | 8.7 ± 0.9 (≈ 4.64 µg/mL) | 3.1 ± 0.3 (≈ 1.65 µg/mL) | 4.08 | 6.25 |  |  |  |  | > 25 | > 25 | > 25 | > 25 |  |  | > 25

Now from value to compound, other results behind:

MIC50 ([4]; Candida albicans, KMM455) [µM] | MIC50 ([5]; Escherichia coli) [µM] | MIC50 [6, 10] [µM] | Inhibition of Biofilm Formation MIC50, C. albicans [7] [µM] | Inhibition of Biofilm Formation MIC50, S. aureus [8] [µM] | Inhibition of Biofilm Formation MIC50, E. coli [9] [µM] | MIC50 [4] [µM] | MIC50 [5] [µM] | MIC50 [6] [µM] | SMILES | EC50 (HeLa (cervical cancer)) [µM] | EC50 [1] [µM] | EC50 [2] [µM] | EC50 at 24 h [3] [µM] | inhibition at 5 µM (HeLa cells; 5 µM, read-out: Colony growth inhibition) [%] | inhibition at 10 µM (HeLa cells; 10 µM) [%] | Hemolytic activity, erythrocytes (Human erythrocytes) [µM]
1.6 ± 0.2 | 5 ± 0.5 | 3 ± 0.2 | 8.69 |  |  |  |  |  | Cl.Nc1nc(-c2ccc(Br)cc2)c(SS[C@@H]2O[C@H](CO)[C@@H](O)[C@H](O)[C@H]2O)s1 [Compound 5c, 5-[(β-D-glucopyranosyl)disulfanyl]-2-amino-4-(4-bromophenyl)thiazole hydrochloride] | > 25 | > 25 | > 25 | > 25 |  |  | > 25
3.1 ± 2.3 | 6.6 ± 0.5 | 2.5 ± 0.2 |  |  | 6.00 |  |  |  | Nc1nc(-c2ccc(Cl)cc2)c(SS[C@@H]2O[C@H](CO)[C@@H](O)[C@H](O)[C@H]2O)s1 [Compound 5d, 5-[(β-D-glucopyranosyl)disulfanyl]-2-amino-4-(4-clorophenyl)thiazole hydrochloride] | > 25 | > 25 | > 25 | > 25 |  |  | > 25
1.6 ± 0.1 | 3.1 ± 0.3 | 1.2 ± 0.1 | 3.21 |  | 8.92 | 1.56 | 3.08 | 1.15 | Cl.Nc1nc(-c2ccc(Br)cc2)c(SS[C@@H]2OC[C@@H](O)[C@H](O)[C@H]2O)s1 [Compound 5h, 5-[(β-D-xylopyranosyl)disulfanyl]-2-amino-4-(4-bromophenyl)thiazole hydrochloride] | > 25 | > 25 | > 25 | 23.5 |  |  | > 25
15.9 ± 1.1 | 38 ± 3 | 34.5 ± 3 |  |  | 5.62 |  |  |  | Cc1ccc(-c2nc(N)sc2SS[C@@H]2OC[C@@H](O)[C@H](O)[C@H]2O)cc1.Cl [Compound 5j, 5-[(β-D-xylopyranosyl)disulfanyl]-2-amino-4-(p-tolyl)thiazole hydrochloride] | > 25 | > 25 | > 25 | > 25 |  |  | 
